Results: patent US20110288154A1, “RNA Interference Mediated Inhibition of Epithelial Sodium Channel (ENaC) Gene Expression Using Short Interfering Nucleic Acid (siNA)” (MERCK & CO., INC., priority 2008, published 2011)
[invAb] = inverted abasic unit; m = 2'-O-methyl; r = 2'-OH (RNA); f = 2'-fluoro

Columns and labels:
rSCNN1A (r ENaCα) mRNA = test: Screening of ENaCα siNAs in Rat H-4-II-E cells (quantitative RT-PCR); type: cell-based; design: Percent Reduction of the r ENaCα mRNA relative to a non-targeting control siNA (NTCs) / Rat % KD (efficacy of ENaCα mRNA knockdown): concentration or dose not given beside the values; details: Rat H-4-II-E cells, n = 3; for Mean (rSCNN1A expression normalized to the level of rGAPDH) / Percent Reduction of the r ENaCα mRNA relative to a non-targeting control siNA (NTCs) / Avg GAPDH Expression (rGAPDH): 24 hours post-transfection; for Avg ENaCα Expression (rSCNN1A): harvested 24 hours post-transfection; for Avg GAPDH Expression (rGAPDH): housekeeping gene used for normalisation
In short: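 Rat H-4-II-E and mouse NIH 3T3 cells transfected with siNA–Lipofectamine 2000 complexes (25 nM siNA final; dose-response at constant lipid), screened at 24 h. qRT-PCR with ENaCα signal normalized to GAPDH or 36B4; % knockdown relative to non-targeting control siNA, triplicates; IC50 from sigmoidal variable-slope fit.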

ENaCα mRNA = test: Screening of ENaCα siNAs in human A549 cells (quantitative RT-PCR); type: cell-based; design: Percent Reduction of the ENaCα mRNA relative to a non-targeting control siNA (NTC): concentration or dose not given beside the values; details: human A549 cells, n = 3; for Avg ENaCα Expression: 25 nM siNA with Lipofectamine 2000, harvested 24 hours post-transfection; for Mean (level of ENaCα expression normalized to the level of GAPDH) / Percent Reduction of the ENaCα mRNA relative to a non-targeting control siNA (NTC) / Avg GAPDH Expression: 24 hours post-transfection; for Avg GAPDH Expression: housekeeping gene used for normalisation
In short: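 A549 cells were seeded 24 h ahead, then transfected in triplicate with siNA/Lipofectamine 2000 at 25 nM siNA and 2.33 μg/ml lipid final, incubated at 37 °C. ENaCα mRNA quantified by qRT-PCR against an RNA standard curve, relative to non-targeting control siNA. IC50 from sigmoidal variable-slope fit.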

Substance	Mean (rSCNN1A expression normalized to the level of rGAPDH) (rSCNN1A (r ENaCα) mRNA)	Percent Reduction of the r ENaCα mRNA relative to a non-targeting control siNA (NTCs) (rSCNN1A (r ENaCα) mRNA)	Avg ENaCα Expression (rSCNN1A) (rSCNN1A (r ENaCα) mRNA)	Avg GAPDH Expression (rGAPDH) (rSCNN1A (r ENaCα) mRNA)	Avg ENaCα Expression (ENaCα mRNA)	Mean (level of ENaCα expression normalized to the level of GAPDH) (ENaCα mRNA)	Percent Reduction of the ENaCα mRNA relative to a non-targeting control siNA (NTC) (ENaCα mRNA)	Avg GAPDH Expression (ENaCα mRNA)
B uGuGGcuGuGccuAcAucu TTB / AGAuGuAGGcAcAGccAcAUU (sense UGUGGCUGUGCCUACAUCUTT; antisense AGAUGUAGGCACAGCCACAUU; siRNA; sense: DNA at AGT, 2'-fluoro at CU, [invAb] at 5' end, 3' end, backbone not given here; antisense: sugars from the 5' end rrrfmfmmmfmfmmffmfmmm, backbone not given here) [Site 1384]	0.66	27.8%	23.39	34.69	82.65	0.80	−21.6%	103.38
B cccuGcuGuccAcAGuGAc TTB / GUCAcuGuGGAcAGcAGGGUU (sense CCCUGCUGUCCACAGUGACTT; antisense GUCACUGUGGACAGCAGGGUU; siRNA; sense: DNA at AGT, 2'-fluoro at CU, [invAb] at 5' end, 3' end, backbone not given here; antisense: sugars from the 5' end rrrmffmfmmmfmmfmmmmmm, backbone not given here) [Site 1121]	0.84	34.6%	19.44	23.01	72.95	1.65	−6.0%	46.89
B AccGcAuGAAGAcGGccuu TTB / AAGGccGucuucAuGcGGuUU (chain 1 ACCGCAUGAAGACGGCCUUTT; chain 2 AAGGCCGUCUUCAUGCGGUUU; siRNA; chain 1: DNA at AGT, 2'-fluoro at CU, [invAb] at 5' end, 3' end, backbone not given here; chain 2: sugars from the 5' end rrrmffmfffffmfmfmmfmm, backbone not given here) [Site 338]	0.79	38.7%	14.22	18.42	65.83	0.90	42.2%	76.32
B uGGGcAGccAGuGGAGccu TTB / AGGcuccAcuGGcuGcccAUU (sense UGGGCAGCCAGUGGAGCCUTT; antisense AGGCUCCACUGGCUGCCCAUU; siRNA; sense: DNA at AGT, 2'-fluoro at CU, [invAb] at 5' end, 3' end, backbone not given here; antisense: sugars from the 5' end rrrffffmffmmffmfffmmm, backbone not given here) [Site 1751]	0.59	36.0%	26.87	45.19	63.35	0.49	25.4%	128.83
B cuGuGcAAccAGAAcAAAu TTB / AUUuGuucuGGuuGcAcAGUU (chain 1 CUGUGCAACCAGAACAAAUTT; chain 2 AUUUGUUCUGGUUGCACAGUU; siRNA; chain 1: DNA at AGT, 2'-fluoro at CU, [invAb] at 5' end, 3' end, backbone not given here; chain 2: sugars from the 5' end rrrfmffffmmffmfmfmmmm, backbone not given here) [Site 781]	0.86	32.8%	23.09	26.57	61.44	0.97	37.7%	66.47
B GGcAGccAGuGGAGccuGu TTB / ACAGGcuccAcuGGcuGccUU (sense GGCAGCCAGUGGAGCCUGUTT; antisense ACAGGCUCCACUGGCUGCCUU; siRNA; sense: DNA at AGT, 2'-fluoro at CU, [invAb] at 5' end, 3' end, backbone not given here; antisense: sugars from the 5' end rrrmmffffmffmmffmffmm, backbone not given here) [Site 1753]	0.59	35.4%	24.59	41.36	84.05	0.66	0.6%	128.19
B GGGcAGccAGuGGAGccuG TTB / CAGGcuccAcuGGcuGcccUU (sense GGGCAGCCAGUGGAGCCUGTT; antisense CAGGCUCCACUGGCUGCCCUU; siRNA; sense: DNA at AGT, 2'-fluoro at CU, [invAb] at 5' end, 3' end, backbone not given here; antisense: sugars from the 5' end rrrmffffmffmmffmfffmm, backbone not given here) [Site 1752]	0.44	52.1%	19.23	43.83	82.06	0.60	9.4%	137.51
